Laboratory results reported in patent US20120245161A1 (SANOFI, priority 2009, published 2012).
Structures can show the parent of a compound that is named as a salt.

Each compound was assayed against T1, recombinant human beta tryptase (Homo sapiens, UniProt P20231) (assay: beta-Tryptase inhibition, chromogenic enzyme assay (substrate S2366, read at 405 nm)). Conditions: Ki calculated from IC50: Ki=IC50/(1+[Substrate]/Km); 0.5 mM substrate, room temperature; read-out: Tryptase Ki.
T1 construct: made in house; host or cells: yeast cells
T1 sequence (P20231 31-275): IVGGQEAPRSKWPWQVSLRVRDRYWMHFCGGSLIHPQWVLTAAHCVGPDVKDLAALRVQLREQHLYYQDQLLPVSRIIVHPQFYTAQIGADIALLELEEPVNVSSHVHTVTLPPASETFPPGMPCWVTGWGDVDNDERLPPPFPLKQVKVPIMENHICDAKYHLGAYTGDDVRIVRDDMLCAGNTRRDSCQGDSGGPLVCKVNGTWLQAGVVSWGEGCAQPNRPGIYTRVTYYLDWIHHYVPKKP
Type: biochemical
Summary of the method: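 Recombinant human beta tryptase (yeast-expressed; native lung enzyme also used), 50 ng/mL final, with 0.5 mM (2×Km) chromogenic substrate S2366; 30 min in the dark, room temperature, read at 405 nm. Compounds at 0.01-10 μM in duplicate for IC50; Ki=IC50/(1+[S]/Km).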

| Compound | Ki [nM] |
| --- | --- |
| NCc1ccc(F)c(C2CCN(C(=O)c3cn(CCc4ccccn4)c4ccccc34)CC2)c1 [Example 40, [4-(5-Aminomethyl-2-fluoro-phenyl)-piperidin-1-yl]-[1-(2-pyridin-2-yl-ethyl)-1H-indol-3-yl]-methanone dihydrochloride] | 25 |
| Cc1cccc2c(C(=O)N3CCC(c4cc(CN)ccc4F)CC3)cn(CCn3ccnc3)c12 [Example 62, [4-(5-Aminomethyl-2-fluoro-phenyl)-piperidin-1-yl]-[1-(2-imidazol-1-yl-ethyl)-7-methyl-1H-indol-3-yl]-methanone dihydrochloride] | 22 |
| COCCn1cc(C(=O)N2CCC(c3cc(CN)ccc3F)CC2)c2c(-c3ccccn3)cccc21 [Example 74, [4-(5-Aminomethyl-2-fluoro-phenyl)-piperidin-1-yl]-[1-(2-methoxy-ethyl)-4-pyridin-2-yl-1H-indol-3-yl]-methanone dihydrochloride] | 26 |

Same assay, conditions: Tryptase Ki (nM), Ki calculated from IC50: Ki=IC50/(1+[Substrate]/Km); 0.5 mM substrate, room temperature

| Compound | Ki [nM] |
| --- | --- |
| COCCn1cc(C(=O)N2CCC(c3cc(F)cc(CN)c3)CC2)c2cccc(C)c21 [Example 116, [4-(5-Aminomethyl-3-fluoro-phenyl)-piperidin-1-yl]-[1-(2-methoxy-ethyl)-7-methyl-1H-indol-3-yl]-methanone hydrochloride] | 746 |
| COCCn1cc(C(=O)N2CCC(c3cc(CN)ccc3OCCc3ccccc3)CC2)c2cccc(C)c21 [Example 115, [4-(5-Aminomethyl-2-phenethyloxy-phenyl)-piperidin-1-yl]-[1-(2-methoxy-ethyl)-7-methyl-1H-indol-3-yl]-methanone hydrochloride] | 390 |
| Cc1cccc2c(C(=O)N3CCC(c4cc(CN)ccc4F)CC3)cn(CCCc3ccccc3)c12 [Example 4, [4-(5-Aminomethyl-2-fluoro-phenyl)-piperidin-1-yl]-[7-methyl-1-(3-phenyl-propyl)-1H-indol-3-yl]-methanone hydrochloride] | 1300 |
| COCCn1cc(C(=O)N2CCC(c3cc(CN)ccc3F)CC2)c2cccc(OC(F)F)c21 [Example 14, [4-(5-Aminomethyl-2-fluoro-phenyl)-piperidin-1-yl]-[7-difluoromethoxy-1-(2-methoxy-ethyl)-1H-indol-3-yl]-methanone hydrochloride] | 83 |
| COCCn1cc(C(=O)N2CCC(c3cc(CN)ccc3F)CC2)c2c(NC(=O)c3cnco3)cccc21 [Example 124, Oxazole-5-carboxylic acid [3-[4-(5-aminomethyl-2-fluoro-phenyl)-piperidine-1-carbonyl]-1-(2-methoxy-ethyl)-1H-indol-4-yl]-amide hydrochloride] | 8 |
| COCCn1cc(C(=O)N2CCC(c3cc(CN)ccn3)CC2)c2cccc(C)c21 [Example 119, (4-Aminomethyl-3′,4′,5′,6′-tetrahydro-2′H-[2,4′]bipyridinyl-1′-yl)-[1-(2-methoxy-ethyl)-7-methyl-1H-indol-3-yl]-methanone hydrochloride] | 180 |
| COCCn1cc(C(=O)N2CCC(c3cc(CN)ccc3F)CC2)c2c(Br)cccc21 [Example 48, [4-(5-Aminomethyl-2-fluoro-phenyl)-piperidin-1-yl]-[4-bromo-1-(2-methoxy-ethyl)-1H-indol-3-yl]-methanone hydrochloride] | 125 |
| COCCn1cc(C(=O)N2CCC(c3cc(CN)ccc3OCC(=O)N(C)C)CC2)c2cccc(OC(F)(F)F)c21 [Example 29, 2-(4-Aminomethyl-2-{1-[1-(2-methoxy-ethyl)-7-trifluoromethoxy-1H-indole-3-carbonyl]-piperidin-4-yl}-phenoxy)-N,N-dimethyl-acetamide hydrochloride] | 331 |
| NCc1ccc(F)c(C2CCN(C(=O)c3cn(CCOC(F)(F)F)c4cccc(-c5cncnc5)c34)CC2)c1 [Example 92, [4-(5-Aminomethyl-2-fluoro-phenyl)-piperidin-1-yl]-[4-pyrimidin-5-yl-1-(2-trifluoromethoxy-ethyl)-1H-indol-3-yl]-methanone dihydrochloride] | 90 |
